What all share (assay type): physicochemical
Data set [1] can be described thus: Dynamic Vapour Sorption (DVS) analysis. Particulars: for moisture gain observed during the moisture sorption: adsorption cycle 5 to 95% RH; for crystalline form after the DVS analysis (XRPD before/after): sample exposed up to 95% RH and down to 5% RH. The method, then: Dynamic Vapour Sorption (DVS) analysis was carried out using a TA Instruments Q5000 Dynamic Vapor Sorption analyzer. The instrument was calibrated with standard weights and a sodium bromide standard for humidity. Approximately 20 mg of sample was loaded into a metal-coated quartz pan for analysis. The sample was analyzed at 25° C. with a maximum equilibration time of one hour in 10% relative humidity (RH) steps from 5 to 95% RH (adsorption cycle) and from 95 to 5% RH (desorption cycle). The movement from one step to the next occurred either after satisfying the equilibrium criterion of 0.01% weight change or, if the equilibrium criterion was not met, after one hour. The percent weight change values were calculated using Microsoft Excel®. The temperature for the DVS analysis can impact the outcome of the results.

Data set [2] can be described thus: Stability when milled in the presence of water or stirred (slurried) in water. To be noted: milled with water; stirred in water between room temperature and 60° C. The method, then:
Milling was performed using a Retsch Mill. About 20 mg of material was placed into a plastic grinding cup followed by 10 μL of water and a stainless-steel ball. The sample was then milled at 100% power for 20 minutes.
To a plastic grinding cup was added 18.4 mg of Compound A and 10 μL of water. A stainless-steel ball was added. The sample was then milled on a Retsch mill at 100% power for 20 minutes at room temperature.
To a 20 mL glass vial was added 200.0 mg of Compound A and 3.0 mL of water. A magnetic stir bar was added and the vial was capped. The vial was placed on a heating/stirring plate and the slurry was stirred magnetically for 7 days at ambient temperature. The vial was centrifuged for 10 minutes and the mother liquor was decanted. A dry air purge was directed into the vial for 10 minutes to dry the solid. The vial was then placed in a room temperature vacuum desiccator for 2 hours.
To a 20 mL glass vial was added 200.0 mg of Compound A and 3.0 mL of water. A magnetic stir bar was added and the vial was capped. The vial was placed on a heating/stirring plate set at 60° C. and the slurry was stirred magnetically for 3 days. The vial was centrifuged for 10 minutes and the mother liquor was decanted. A dry air purge was directed into the vial for 10 minutes to dry the solid. The vial was then placed in a room temperature vacuum desiccator for 2 hours.

A short description of data set [3]: Relative stability of Form A and Form B slurried in organic/water solvent systems of differing water activity. To be noted: mixture of the two forms slurried. The text has this: If the solvent system has higher than or equal water activity of 0.72, and the two crystalline forms are mixed, the mixture converts to Form A. The solvent systems can be mixture of any organic solvents and organic solvents containing water.
The solvent systems can be mixture of any organic solvents and organic solvents containing water.

Where [4] appears, read: DVS, 25° C., desorption cycle 95 to 5% RH.

Structures are written as SMILES.

As for `CSc1nc(N)c2ncn([C@H]3[C@H](O)[C@H](O)[C@]4(CO)C[C@H]34)c2n1` [Form A of compound A], in data set [1] (DVS, 5 to 95% RH), the “stability under various humidity conditions” value is “stable under various humidity conditions”. Further, in data set [1] (DVS, 25° C., 5 to 95% RH), the “hygroscopicity based on the DVS data” value was “moderately hygroscopic”. In data set [1] (DVS, 25° C.), the “moisture gain observed during the moisture sorption” value is reported as “approximately 9.3%”. Besides, the “moisture loss observed during the desorption cycle” value in data set [1] (setting [4]) is recorded as “about 2%”. Moreover, the “crystalline form after the DVS analysis (XRPD before/after)” value in data set [1] is “remained unchanged”. In addition, the “stability when milled in the presence of water or stirred in water” value in data set [2] is on record as “stable”. Moreover, the “water activity of solvent system at which this form is the more stable of Forms A and B” value in data set [3] is listed as no less than 0.72.

With `CSc1nc(N)c2ncn([C@H]3[C@H](O)[C@H](O)[C@]4(CO)C[C@H]34)c2n1` [Form B of compound A], the “hygroscopicity based on the DVS data” value in data set [1] (DVS, 25° C., 5 to 95% RH) is recorded as “moderately hygroscopic”. Besides, the “moisture gain observed during the moisture sorption” value in data set [1] (DVS, 25° C.) is listed as “approximately 6.4%”. In addition, the “moisture loss during the desorption cycle (in words)” value in data set [1] (setting [4]) is reported as “lost all of the moisture gain”. For the same molecule, in data set [1], the “crystalline form after the DVS analysis (XRPD before/after)” value was “remained unchanged”. Also, in data set [3], the “water activity of solvent system at which this form is the more stable of Forms A and B” value is on record as “less than or equal to 0.63”.

The values are drawn from patent US10765693B2, “Polymorphic compounds and uses thereof” (Astrocyte Pharmaceuticals, Inc., priority 2018, dated 2020).
